Results reported in patent US7482379B2, “Propenoyl hydrazides” (priority 2004, dated 2009).

Experiments:
Caspase-9 = biological target: T1, Caspase-9 (Homo sapiens, UniProt P55211); test: Caspase-9 progress curve inhibition assay; settings: second-order rate constant; Ac-LEHD-AFC substrate; Hepes buffer pH 7.0 with 0.7 M sodium citrate
T1 sequence (P55211 1-315 limits assumed): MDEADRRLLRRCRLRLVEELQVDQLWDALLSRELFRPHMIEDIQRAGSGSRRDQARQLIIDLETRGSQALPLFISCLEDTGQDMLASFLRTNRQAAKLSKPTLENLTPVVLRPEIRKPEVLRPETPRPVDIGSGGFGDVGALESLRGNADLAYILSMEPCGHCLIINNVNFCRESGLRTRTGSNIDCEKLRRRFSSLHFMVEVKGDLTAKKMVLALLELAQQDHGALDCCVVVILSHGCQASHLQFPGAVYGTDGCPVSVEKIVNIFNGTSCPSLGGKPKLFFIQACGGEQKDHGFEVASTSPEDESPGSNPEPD
T1 sequence (P55211 331-416 limits assumed): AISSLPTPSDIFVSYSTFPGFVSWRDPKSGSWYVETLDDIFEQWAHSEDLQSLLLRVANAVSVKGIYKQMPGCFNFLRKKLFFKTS

Caspase-8 = Caspase-8 (Homo sapiens, UniProt Q14790); test: Caspase-8 progress curve inhibition assay; settings: second-order rate constant; Ac-DEVD-AMC substrate; Pipes buffer pH 7.2
Caspase-10 = biological target: T2, Caspase-10 (Homo sapiens, UniProt Q92851); test: Caspase-10 progress curve inhibition assay; settings: second-order rate constant; Ac-DEVD-AMC substrate; Hepes/PEG buffer pH 7.0
T2 sequence (Q92851 220-415 limits assumed): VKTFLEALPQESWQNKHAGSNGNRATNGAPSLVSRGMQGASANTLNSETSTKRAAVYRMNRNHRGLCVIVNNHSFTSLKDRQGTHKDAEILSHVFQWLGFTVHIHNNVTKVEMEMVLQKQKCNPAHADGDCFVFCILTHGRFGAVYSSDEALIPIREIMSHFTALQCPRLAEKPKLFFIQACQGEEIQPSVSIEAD
T2 sequence (Q92851 416-521 limits assumed): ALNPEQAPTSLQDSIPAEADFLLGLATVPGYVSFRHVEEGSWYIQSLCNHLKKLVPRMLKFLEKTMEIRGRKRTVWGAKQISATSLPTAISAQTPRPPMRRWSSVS

Caspase-3 = biological target: T3, Caspase-3 (Homo sapiens, UniProt P42574); test: Caspase-3 progress curve inhibition assay; settings: second-order rate constant; Ac-DEVD-AMC substrate; Pipes buffer pH 7.2
T3 sequence (P42574 29-175 limits assumed): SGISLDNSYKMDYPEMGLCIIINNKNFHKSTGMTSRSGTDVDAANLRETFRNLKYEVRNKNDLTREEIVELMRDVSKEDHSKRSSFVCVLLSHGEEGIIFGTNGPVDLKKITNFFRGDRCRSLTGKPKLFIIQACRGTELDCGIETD
T3 sequence (P42574 176-277 limits assumed): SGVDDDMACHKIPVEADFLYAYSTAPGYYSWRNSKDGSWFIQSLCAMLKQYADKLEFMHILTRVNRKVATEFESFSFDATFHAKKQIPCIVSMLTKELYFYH

Caspase-6 = biological target: T4, Caspase-6 (Homo sapiens, UniProt P55212); test: Caspase-6 progress curve inhibition assay; settings: second-order rate constant; Ac-DEVD-AMC substrate; Pipes buffer pH 7.2
T4 sequence (P55212 24-179 limits assumed): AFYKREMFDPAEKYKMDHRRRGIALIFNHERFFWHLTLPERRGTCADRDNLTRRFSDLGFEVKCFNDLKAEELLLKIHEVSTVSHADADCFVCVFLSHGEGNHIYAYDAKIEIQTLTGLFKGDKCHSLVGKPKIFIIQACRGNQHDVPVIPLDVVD
T4 sequence (P55212 194-293 limits assumed): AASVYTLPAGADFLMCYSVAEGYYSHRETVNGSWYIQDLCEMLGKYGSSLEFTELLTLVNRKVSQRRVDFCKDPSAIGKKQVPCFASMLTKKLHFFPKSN

Caspase-7 = biological target: T5, Caspase-7 (Homo sapiens, UniProt P55210); test: Caspase-7 progress curve inhibition assay; settings: second-order rate constant; Ac-DEVD-AMC substrate; Pipes buffer pH 7.2
T5 sequence (P55210 24-198 limits assumed): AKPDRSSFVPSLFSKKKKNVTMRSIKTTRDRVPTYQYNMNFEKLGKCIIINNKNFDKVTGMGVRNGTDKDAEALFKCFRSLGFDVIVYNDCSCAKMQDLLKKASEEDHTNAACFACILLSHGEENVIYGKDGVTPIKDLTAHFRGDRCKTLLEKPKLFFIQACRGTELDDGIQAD
T5 sequence (P55210 207-303 limits assumed): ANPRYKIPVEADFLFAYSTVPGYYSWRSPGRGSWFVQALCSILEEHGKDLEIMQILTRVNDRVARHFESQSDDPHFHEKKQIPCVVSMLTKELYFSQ

Caspase-2 = biological target: T6, Caspase-2 (Homo sapiens, UniProt P42575); test: Caspase-2 progress curve inhibition assay; settings: second-order rate constant; Cbz-VDVAD-AFC substrate; Pipes buffer pH 7.2
T6 sequence (P42575 170-333 limits assumed): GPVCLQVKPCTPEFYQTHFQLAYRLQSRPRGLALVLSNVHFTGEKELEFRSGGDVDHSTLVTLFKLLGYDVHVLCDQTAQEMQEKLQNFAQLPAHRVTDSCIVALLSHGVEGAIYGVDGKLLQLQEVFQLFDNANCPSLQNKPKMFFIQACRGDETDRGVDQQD
T6 sequence (P42575 348-452 limits assumed): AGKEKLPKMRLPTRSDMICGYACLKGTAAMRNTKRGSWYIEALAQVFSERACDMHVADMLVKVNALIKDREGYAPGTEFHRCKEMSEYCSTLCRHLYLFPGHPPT
Protocol: Inhibition rates were determined by the progress curve method known in the art. This method is suitable for measuring irreversible inhibition rates with fast inhibitors, where the inhibitor, the substrate and the enzyme are incubated together and the rate of substrate hydrolysis is measured continuously. The rate of substrate hydrolysis in the presence of the inhibitor was monitored for 20 minutes. The progress curve of inhibition, where the product formation approaches an asymptote is described in the equation ln([P∞]−[P])=ln[P∞]−A[I]t where [P] and [P∞] are the product concentrations at t and t=∞ respectively, A is the apparent rate constant in the presence of the substrate. The apparent rate constants were determined from the slopes of plots of ln ([P∞]−[P]) versus time (t) in seconds as previously described, where A=slope/[I].
For competitive and irreversible inhibition, the apparent rate constant is converted to the second order rate constant k2 by taking into consideration the effect of the substrate concentration on the apparent rate constant. The second order rate constant is described as in the equation: k2=A*(1+[S]/KM)
The concentration of the caspase-3 stock solution was 2 nM in the assay buffer. Assay buffer is a 1:1 mixture of caspase buffer (40 mM Pipes, 200 mM NaCl, 0.2% (w/v) CHAPS, sucrose 20% (w/v)) and 20 mM DTT solution in H2O at pH 7.2. The concentration of the substrate stock solution was 2 mM in DMSO. The enzyme was pre-activated for 10 min at 37° C. in the assay buffer. […] 50 μL of 2 nM enzyme stock solution (final concentration: 1 nM) was added to the mixture after 1 min and reading started immediately for 20 min at 37° C. Inhibition experiments were repeated in duplicate and standard deviations determined.
The inhibitor stock solution concentrations varied from 5×10^−3 M to 1×10^−4 M in DMSO.

Chain of Caspase-8 (Q14790 217-374 limits assumed): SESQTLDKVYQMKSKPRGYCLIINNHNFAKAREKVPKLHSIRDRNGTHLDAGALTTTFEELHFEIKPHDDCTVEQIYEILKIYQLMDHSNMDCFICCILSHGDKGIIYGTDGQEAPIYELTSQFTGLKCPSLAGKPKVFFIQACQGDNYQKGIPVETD
Chain of Caspase-8 (Q14790 385-479 limits assumed): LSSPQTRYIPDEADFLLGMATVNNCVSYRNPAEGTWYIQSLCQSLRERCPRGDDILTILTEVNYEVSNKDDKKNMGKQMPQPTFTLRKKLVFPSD

SMILES | k2 Caspase-9 (Caspase-9) | k2 Caspase-8 (Caspase-8) | k2 Caspase-10 (Caspase-10) | k2 Caspase-3 (Caspase-3) | k2 Caspase-6 (Caspase-6) | k2 Caspase-7 (Caspase-7) | k2 Caspase-2 (Caspase-2)
CC(C)C[C@H](NC(=O)OCc1ccccc1)C(=O)N[C@@H](CCC(=O)O)C(=O)N[C@H](C(=O)NN(CC(=O)O)C(=O)/C=C/C(=O)N(C)Cc1ccccc1)[C@@H](C)O (relative stereo) [Cbz-Leu-Glu-Thr-AAsp-CH═CH—CON(CH3)CH2Ph, N^1-trans-(3-Benzylmethylcarbamoylpropenoyl)-N^2—(N-benzyloxycarbonylleucylglutamylthreonyl)-N^1-carboxylmethylhydrazine] | 4,320 M^−1s^−1 | 169,000 M^−1s^−1 | 8,430 M^−1s^−1 | 6,000 M^−1s^−1 | 10,800 M^−1s^−1 | 520 M⁻¹ s⁻¹ | 140 M⁻¹ s⁻¹
CC(C)C[C@H](NC(=O)OCc1ccccc1)C(=O)N[C@@H](CCC(=O)O)C(=O)N[C@H](C(=O)NN(CC(=O)O)C(=O)/C=C/C(=O)NCCc1ccccc1)[C@@H](C)O (relative stereo) [Cbz-Leu-Glu-Thr-AAsp-CH═CH—CONHCH2CH2Ph, N^2—(N-Benzyloxycarbonylleucylglutamylthreonyl)-N^1-carboxylmethyl-N^1-trans-(3-phenylethylcarbamoylpropenoyl)hydrazine] | 1,760 M^−1s^−1 | 121,000 M^−1s^−1 | 17,900 M^−1s^−1 | 5,400 M^−1s^−1 | 2,150 M^−1s^−1 | 440 M⁻¹ s⁻¹ | 110 M⁻¹ s⁻¹
CC(C)C[C@H](NC(=O)OCc1ccccc1)C(=O)N[C@@H](CCC(=O)O)C(=O)N[C@H](C(=O)NN(CC(=O)O)C(=O)/C=C/C(=O)NCc1ccccc1)[C@@H](C)O (relative stereo) [Cbz-Leu-Glu-Thr-AAsp-CH═CH—CONHCH2Ph, N^1-trans-(3-Benzylcarbamoylpropenoyl)-N^2—(N-benzyloxycarbonylleucylglutamylthreonyl)-N^1-carboxylmethylhydrazine] | 1,400 M^−1s^−1 | 70,170 M^−1s^−1 | 14,400 M^−1s^−1 | 1,120 M^−1s^−1 | 1,550 M^−1s^−1 | 340 M⁻¹ s⁻¹ | 66 M⁻¹ s⁻¹
CC(C)C[C@H](NC(=O)OCc1ccccc1)C(=O)N[C@@H](CCC(=O)O)C(=O)N[C@H](C(=O)NN(CC(=O)O)C(=O)/C=C/C(=O)Nc1ccccc1)[C@@H](C)O (relative stereo) [Cbz-Leu-Glu-Thr-AAsp-CH═CH—CONHPh, N^2—(N-Benzyloxycarbonylleucylglutamylthreonyl)-N^1-carboxylmethyl-N^1-trans-(3-phenylcarbamoylpropenoyl)hydrazine] | 1,190 M^−1s^−1 | 176,000 M^−1s^−1 | 6,050 M^−1s^−1 | 4,700 M^−1s^−1 | 11,400 M^−1s^−1 | 730 M⁻¹ s⁻¹ | 290 M⁻¹ s⁻¹
CCOC(=O)/C=C/C(=O)N(CC(=O)O)NC(=O)[C@@H](NC(=O)[C@H](CCC(=O)O)NC(=O)[C@@H](NC(=O)OCc1ccccc1)C(C)C)C(C)C (relative stereo) [Cbz-Val-Glu-Val-AAsp-CH═CH—COOEt, N^2—(N-Benzyloxycarbonylvalylglutamylvalyl)-N^1-carboxymethyl-N^1-trans-(3-ethoxycarbonylpropenoyl)hydrazine] | 340 M⁻¹ s⁻¹ | 175,800 M^−1s^−1 | 6,600 M^−1s^−1 | 41,200 M^−1s^−1 | 83,600 M^−1s^−1 | 3,650 M^−1s^−1 | 115 M⁻¹ s⁻¹
CC(C)[C@H](NC(=O)[C@H](CCC(=O)O)NC(=O)[C@H](CC(=O)O)NC(=O)OCc1ccccc1)C(=O)NN(CC(=O)O)C(=O)/C=C/C(=O)NCc1ccc(F)cc1 (relative stereo) [N^2—(N-Benzyloxycarbonylaspartylglutamylvalyl)-N^1-carboxymethyl-N^1-trans-(3-(4-fluorobenzyl)carbamoylpropenoyl)hydrazine] | 900 M⁻¹ s⁻¹ | 85,100 M^−1s^−1 | 37,700 M^−1s^−1 | 2,100,000 M^−1s^−1 | 4,400 M^−1s^−1 | 329,000 M^−1s^−1 | 130 M⁻¹ s⁻¹
CC(C)[C@H](NC(=O)[C@H](CCC(=O)O)NC(=O)[C@H](CC(=O)O)NC(=O)OCc1ccccc1)C(=O)NN(CC(=O)O)C(=O)/C=C/C(=O)N(C)CCc1ccccc1 (relative stereo) [N^2—(N-Benzyloxycarbonylaspartylglutamylvalyl)-N^1-carboxymethyl-N^1-trans-(3-phenethylmethylcarbamoylpropenoyl)hydrazine] | 425 M⁻¹ s⁻¹ | 31,900 M^−1s^−1 | 9,570 M^−1s^−1 | 1,180,000 M^−1s^−1 | 4,000 M^−1s^−1 | 172,000 M^−1s^−1 | 320 M⁻¹ s⁻¹
CC(C)C[C@H](NC(=O)OCc1ccccc1)C(=O)N[C@@H](CCC(=O)O)C(=O)N[C@H](C(=O)NN(CC(=O)O)C(=O)/C=C/C(=O)NCc1ccc(F)cc1)[C@@H](C)O (relative stereo) [N^2—(N-Benzyloxycarbonylleucylglutamylthreonyl)-N^1-carboxylmethyl-N^1-trans-(3-(4-fluorobenzyl)carbamoylpropenoyl)hydrazine] | 1,695 M^−1s^−1 | 171,000 M^−1s^−1 | 9,380 M^−1s^−1 | 4,490 M^−1s^−1 | 3,100 M^−1s^−1 | 410 M⁻¹ s⁻¹ | 70 M⁻¹ s⁻¹
CC(C)C[C@H](NC(=O)OCc1ccccc1)C(=O)N[C@@H](CCC(=O)O)C(=O)N[C@H](C(=O)NN(CC(=O)O)C(=O)/C=C/C(=O)N(C)Cc1cccc2ccccc12)[C@@H](C)O (relative stereo) [N^2—(N-Benzyloxycarbonylleucylglutamylthreonyl)-N^1-carboxylmethyl-N^1-trans-(3-(methyl-1-naphthylmethyl)carbamoylpropenoyl)hydrazine] | 5,030 M^−1s^−1 | 179,000 M^−1s^−1 | 13,600 M^−1s^−1 | 11,200 M^−1s^−1 | 21,700 M^−1s^−1 | 1,100 M^−1s^−1 | 290 M⁻¹ s⁻¹
